pIC50: −log10 of the molar value. Read-outs that look alike come from different tables or passages of the source.
Tested on: cellular pERK in PC-9 cells (EGFR Ex19Del)
Assay: Potency assay: pERK (AlphaLISA SureFire Ultra p-ERK1/2) in PC-9 cells
Assay type: cell-based
Settings: PC-9 cells (EGFR Ex19Del), 1 hour incubation, AlphaLISA SureFire Ultra p-ERK1/2, read-out: SOS1 pERK IC50

## C[C@@H](Nc1ncnc2c1cc(C1=CCS(=O)(=NC#N)CC1)c(=O)n2C)c1cccc(C(F)F)c1F (single isomer, unassigned) [Example 45]
Homo sapiens, PC-9, 1 h
  pIC50: 7.54

## C[C@@H](Nc1ncnc2c1cc(C1=CCS(=O)(=NC#N)CC1)c(=O)n2C)c1cccc(C(F)F)c1F (single isomer, unassigned) [Example 46]
  pIC50: 7.36

## COC1(c2cc3c(N[C@H](C)c4cccc(C(F)F)c4F)ncnc3n(C)c2=O)CCS(=N)(=O)CC1 (single isomer, unassigned) [Example 49]
Homo sapiens, PC-9, 1 h
  pIC50: 7.12

## COC1(c2cc3c(N[C@H](C)c4cccc(C(F)F)c4F)ncnc3n(C)c2=O)CCS(=N)(=O)CC1 (single isomer, unassigned) [Example 50]
  pIC50: 6.95

## CN=S1(=O)CCC(F)(c2cc3c(N[C@H](C)c4cccc(C(F)F)c4F)ncnc3n(C)c2=O)CC1 (single isomer, unassigned) [Example 51]
Homo sapiens, PC-9, 1 h
  pIC50: 7.39

## CC(=O)N1CCC2(c3cc4c(N[C@H](C)c5cccc(C(F)F)c5F)ncnc4n(C)c3=O)CC2C1 (single isomer, unassigned) [Example 54-1]
  pIC50: 7.27

## C[C@@H](Nc1ncnc2c1cc(C13CCOCC1C3)c(=O)n2C)c1cccc(C(F)F)c1F (single isomer, unassigned) [Example 54-2]
  pIC50: 7.08

## C[C@@H](Nc1ncnc2c1cc(C13CCOCC1C3)c(=O)n2C)c1cccc(C(F)F)c1F (single isomer, unassigned) [Example 54-3]
  pIC50: 6.42

## CC(=O)N1CCC2(c3cc4c(N[C@H](C)c5cccc(C(F)F)c5F)ncnc4n(C)c3=O)CC2C1 (single isomer, unassigned) [Example 54-4]
  pIC50: 6.52

## C[C@@H](Nc1ncnc2c1cc(C1(F)CCC3(CC1)CS(=O)(=NC1CC1)C3)c(=O)n2C)c1cccc(C(F)F)c1F (single isomer, unassigned) [Example 56-1]
  pIC50: 6.92

## C[C@@H](Nc1ncnc2c1cc(C1(F)CCC3(CC1)CS(=O)(=NC1CC1)C3)c(=O)n2C)c1cccc(C(F)F)c1F (single isomer, unassigned) [Example 56-2]
  pIC50: 6.53

## C[C@@H](Nc1ncnc2c1cc(C1(F)CCC3(CC1)CS(=O)(=NC1CC1)C3)c(=O)n2C)c1cccc(C(F)F)c1F (single isomer, unassigned) [Example 56-3]
  pIC50: 7.06

## C[C@@H](Nc1ncnc2c1cc(C1(C#N)CCC3(CC1)CS(=O)(=NC1CC1)C3)c(=O)n2C)c1cccc(C(F)F)c1F (single isomer, unassigned) [Example 58-1]
  pIC50: 6.41

## C[C@@H](Nc1ncnc2c1cc(C1(C#N)CCC3(CC1)CS(=O)(=NC1CC1)C3)c(=O)n2C)c1cccc(C(F)F)c1F (single isomer, unassigned) [Example 58-2]
  pIC50: 7.25

## C[C@@H](Nc1ncnc2c1cc(C1(C#N)CCS(=O)(=NC3CC3)CC1)c(=O)n2C)c1cccc(C(F)F)c1F (single isomer, unassigned) [Example 58]
  pIC50: 6.57

## C[C@@H](Nc1ncnc2c1cc(C1CCS(=O)(=NC3CC3)CC1)c(=O)n2C)c1cccc(C(F)F)c1F (single isomer, unassigned) [Example 64-1]
  pIC50: 7.58

## C[C@@H](Nc1ncnc2c1cc(C1CCS(=O)(=NC3CC3)CC1)c(=O)n2C)c1cccc(C(F)F)c1F (single isomer, unassigned) [Example 64-2]
  pIC50: 6.31

## CN=S1(=O)CCC(c2cc3c(N[C@H](C)c4cccc(C(F)F)c4F)ncnc3n(C)c2=O)CC1 (single isomer, unassigned) [Example 64-3]
  pIC50: 7.23

## CN=S1(=O)CCC(c2cc3c(N[C@H](C)c4cccc(C(F)F)c4F)ncnc3n(C)c2=O)CC1 (single isomer, unassigned) [Example 64]
  pIC50: 6.88

## COC1(c2cc3c(N[C@H](C)c4cccc(C(F)F)c4F)ncnc3n(C)c2=O)CCS(=O)(=NC2CC2)CC1 (single isomer, unassigned) [Example 68]
  pIC50: 6.70

## COC1(c2cc3c(N[C@H](C)c4cccc(C(F)F)c4F)ncnc3n(C)c2=O)CCS(=O)(=NC2CC2)CC1 (single isomer, unassigned) [Example 69]
  pIC50: 7.03

## COC1(c2cc3c(N[C@H](C)c4cccc(C(F)F)c4F)ncnc3n(C)c2=O)CC(N(C)C(C)=O)C1 (stereo in doubt) [Example 32-40]
Homo sapiens, PC-9, 1 h
  pIC50: 6.42

## C[C@@H](Nc1ncnc2c1cc(C1=CCCNC1)c(=O)n2C)c1cccc(C(F)F)c1F [Example 1-4]
Homo sapiens, PC-9, 1 h
  pIC50: 7.37

## C[C@@H](Nc1ncnc2c1cc(C1=CCCOC1)c(=O)n2C)c1cccc(C(F)F)c1F [Example 1-6]
Homo sapiens, PC-9, 1 h
  pIC50: 6.74

## CC(=O)N1CC=C(c2cc3c(N[C@H](C)c4cccc(C(F)F)c4F)ncnc3n(C)c2=O)CC1 [Example 1-16]
Homo sapiens, PC-9, 1 h
  pIC50: 6.92

## CC(=O)N1CC=C(c2cc3c(N[C@H](C)c4cccc(C(C)(F)F)c4F)ncnc3n(C)c2=O)CC1 [Example 1-20]
Homo sapiens, PC-9, 1 h
  pIC50: 7.11

## C[C@@H](Nc1ncnc2c1cc(C1=CCN(C3COC3)CC1)c(=O)n2C)c1cccc(C(F)F)c1F [Example 1-22]
Homo sapiens, PC-9, 1 h
  pIC50: 6.38

## CC(=O)N1CC=C(c2cc3c(N[C@H](C)c4cccc(C(F)(F)F)c4F)ncnc3n(C)c2=O)CC1 [Example 1-24]
Homo sapiens, PC-9, 1 h
  pIC50: 6.97

## C[C@@H](Nc1ncnc2c1cc(C1=CCN(CC(F)(F)F)CC1)c(=O)n2C)c1cccc(C(F)F)c1F [Example 1-27]
Homo sapiens, PC-9, 1 h
  pIC50: 6.50

## C[C@@H](Nc1ncnc2c1cc(C1CCNCC1)c(=O)n2C)c1cccc(C(F)F)c1F [Example 1-28]
Homo sapiens, PC-9, 1 h
  pIC50: 6.90

## Cc1nc(N[C@H](C)c2cccc(C(F)F)c2F)c2cc(C3CCNCC3)c(=O)n(C)c2n1 [Example 1-31]
Homo sapiens, PC-9, 1 h
  pIC50: 6.25

## C[C@@H](Nc1ncnc2c1cc(C1=CC[P@](C)(=O)CC1)c(=O)n2C)c1cccc(C(F)F)c1F [Example 1-32]
Homo sapiens, PC-9, 1 h
  pIC50: 7.03

## C[C@@H](Nc1ncnc2c1cc(C1=CC[P@@](C)(=O)CC1)c(=O)n2C)c1cccc(C(F)F)c1F [Example 1-33]
Homo sapiens, PC-9, 1 h
  pIC50: 6.70

## C[C@@H](Nc1ncnc2c1cc(N1CCOCC1)c(=O)n2C)c1cccc(C(F)(F)CO)c1 [Example 2, (R)-4-((1-(3-(1,1-difluoro-2-hydroxyethyl)phenyl)ethyl)amino)-8-methyl-6-morpholinopyrido[2,3-d]pyrimidin-7(8H)-one]
Homo sapiens, PC-9, 1 h
  pIC50: 7.22

## Cc1nc(N[C@H](C)c2cccc(C(F)F)c2F)c2cc(N3CCOCC3)c(=O)n(C)c2n1 [Example 2-1]
Homo sapiens, PC-9, 1 h
  pIC50: 6.95

## Cc1nc(N[C@H](C)c2cccc(C(F)(F)CO)c2)c2cc(C3=CCOCC3)c(=O)n(C)c2n1 [Example 3, (R)-4-((1-(3-(1,1-difluoro-2-hydroxyethyl)phenyl)ethyl)amino)-6-(3,6-dihydro-2H-pyran-4-yl)-2,8-dimethylpyrido[2,3-d]pyrimidin-7(8H)-one]
Homo sapiens, PC-9, 1 h
  pIC50: 7.10

## Cc1nc(N[C@H](C)c2cccc(C(F)(F)CO)c2)c2cc(C3=CCNCC3)c(=O)n(C)c2n1 [Example 4, (R)-4-((1-(3-(1,1-difluoro-2-hydroxyethyl)phenyl)ethyl)amino)-2,8-dimethyl-6-(1,2,3,6-tetrahydropyridin-4-yl)pyrido[2,3-d]pyrimidin-7(8H)-one]
Homo sapiens, PC-9, 1 h
  pIC50: 6.32

## C[C@@H](Nc1ncnc2c1cc(C1=CCOCC1)c(=O)n2C)c1cccc(C(F)(F)F)c1 [Example 5, (R)-6-(3,6-dihydro-2H-pyran-4-yl)-8-methyl-4-((1-(3-(trifluoromethyl)phenyl)ethyl)amino)pyrido[2,3-d]pyrimidin-7(8H)-one]
Homo sapiens, PC-9, 1 h
  pIC50: 6.87

## Cc1nc(N[C@H](C)c2cc(N)cc(C(F)(F)F)c2)c2cc(C3=CCNCC3)c(=O)n(C)c2n1 [Example 6, 4-[[(1R)-1-[3-amino-5-(trifluoromethyl)phenyl]ethyl]amino]-2,8-dimethyl-6-(1,2,3,6-tetrahydropyridin-4-yl)pyrido[2,3-d]pyrimidin-7-one]
Homo sapiens, PC-9, 1 h
  pIC50: 6.73

## Cc1nc(N[C@H](C)c2cc(N)cc(C(F)(F)F)c2)c2cc(C3=CCOCC3)c(=O)n(C)c2n1 [Example 7, (R)-4-((1-(3-amino-5-(trifluoromethyl)phenyl)ethyl)amino)-6-(3,6-dihydro-2H-pyran-4-yl)-2,8-dimethylpyrido[2,3-d]pyrimidin-7(8H)-one]
Homo sapiens, PC-9, 1 h
  pIC50: 7.14

## Cc1nc(N[C@H](C)c2cc(N)cc(C(F)(F)F)c2)c2cc(C3CCNCC3)c(=O)[nH]c2n1 [Example 8, (R)-4-((1-(3-amino-5-(trifluoromethyl)phenyl)ethyl)amino)-2-methyl-6-(piperidin-4-yl)pyrido[2,3-d]pyrimidin-7(8H)-one]
Homo sapiens, PC-9, 1 h
  pIC50: 5.67

## C[C@@H](Nc1ncnc2c1cc(-c1ccccc1)c(=O)n2C)c1cccc(C(F)F)c1F [Example 21-13]
Homo sapiens, PC-9, 1 h
  pIC50: 6.31

## C[C@@H](Nc1ncnc2c1cc(-c1ccncc1)c(=O)n2C)c1cccc(C(F)F)c1F [Example 21-14]
Homo sapiens, PC-9, 1 h
  pIC50: 6.92

## C[C@@H](Nc1ncnc2c1cc(-c1cccnc1)c(=O)n2C)c1cccc(C(F)F)c1F [Example 21-15]
Homo sapiens, PC-9, 1 h
  pIC50: 6.67

## C[C@@H](Nc1ncnc2c1cc(C1=CC[S+]([O-])CC1)c(=O)n2C)c1cccc(C(F)F)c1F (stereo partly drawn) [Example 22, 4-(((R)-1-(3-(difluoromethyl)-2-fluorophenyl)ethyl)amino)-8-methyl-6-(1-oxido-3,6-dihydro-2H-thiopyran-4-yl)pyrido[2,3-d]pyrimidin-7(8H)-one]
Homo sapiens, PC-9, 1 h
  pIC50: 6.91

## C[C@@H](Nc1ncnc2c1cc(C1=CCS(=N)(=O)CC1)c(=O)n2C)c1cccc(C(F)F)c1F (stereo partly drawn) [Example 23, 4-(((R)-1-(3-(difluoromethyl)-2-fluorophenyl)ethyl)amino)-6-(1-imino-1-oxido-1,2,3,6-tetrahydro-1λ^6-thiopyran-4-yl)-8-methylpyrido[2,3-d]pyrimidin-7(8H)-one]
Homo sapiens, PC-9, 1 h
  pIC50: 7.31

## CN=S1(=O)CC=C(c2cc3c(N[C@H](C)c4cccc(C(F)F)c4F)ncnc3n(C)c2=O)CC1 (stereo partly drawn) [Example 24, 4-(((R)-1-(3-(difluoromethyl)-2-fluorophenyl)ethyl)amino)-8-methyl-6-(1-(methylimino)-1-oxido-1,2,3,6-tetrahydro-1λ^6-thiopyran-4-yl)pyrido[2,3-d]pyrimidin-7(8H)-one]
Homo sapiens, PC-9, 1 h
  pIC50: 7.21
